Measured values: the NIST ThermoML archive (doi:10.1016/j.jct.2019.02.015)

Columns and labels:
[1] = 101.33 kPa, Liquid; for speed of sound: Single path-length method; for mass density: Vibrating tube method
[2] = refractive index (Na D-line) (dimensionless); conditions: 101.33 kPa, Liquid, Standard Abbe refractometry
[3] = refractive index (Na D-line) (dimensionless); wn = mass fraction of the nth substance listed; conditions: 298.15 K, 100 kPa, Liquid, Standard Abbe refractometry
[4] = wn = mass fraction of the nth substance listed; conditions: 298.15 K, 100 kPa, Liquid; for viscosity: Falling or rolling sphere viscometry; for speed of sound: Frequency=3 MHz, Single path-length method; for mass density: Vibrating tube method

CCCC(=O)[O-].CCCCCC[NH+](CCCCCC)CCCCCC [trihexylammonium butanoate]
viscosity [mPa·s], [1]
Conditions | Cone and plate viscometry | Falling or rolling sphere viscometry
293.15 K | – | 13.26
298.15 K | 11.52 | 10.91
303.15 K | – | 9.09
308.15 K | – | 7.66
313.15 K | – | 6.52
318.15 K | – | 5.6
323.15 K | – | 4.85
328.15 K | – | 4.24
333.15 K | – | 3.73
338.15 K | – | 3.3
343.15 K | – | 2.94

Conditions | mass density, [1] [kg/m3] | refractive index, [2] | speed of sound, [1] [m/s]
293.15 K | 848.02 | 1.4419 | 1345
298.15 K | 844.32 | 1.44 | 1326.7
303.15 K | 840.63 | 1.438 | 1308.6
308.15 K | 836.93 | 1.4361 | 1290.7
313.15 K | 833.22 | 1.4342 | 1273
318.15 K | 829.5 | 1.4322 | 1255.5
323.15 K | 825.78 | 1.4302 | 1238.1
328.15 K | 822.04 | 1.4282 | 1221
333.15 K | 818.3 | 1.4262 | 1204
338.15 K | 814.54 | 1.4241 | 1187.3
343.15 K | 810.76 | 1.4221 | 1171.3

CCCCCC(=O)[O-].CCCCCC[NH+](CCCCCC)CCCCCC [trihexylammonium hexanoate]
viscosity [mPa·s], [1]
Conditions | Cone and plate viscometry | Falling or rolling sphere viscometry
293.15 K | – | 13.86
298.15 K | 12.53 | 11.44
303.15 K | – | 9.55
308.15 K | – | 8.05
313.15 K | – | 6.86
318.15 K | – | 5.9
323.15 K | – | 5.11
328.15 K | – | 4.48
333.15 K | – | 3.95
338.15 K | – | 3.5
343.15 K | – | 3.12

Conditions | mass density, [1] [kg/m3] | refractive index, [2] | speed of sound, [1] [m/s]
293.15 K | 849.82 | 1.4432 | 1353.3
298.15 K | 846.21 | 1.4412 | 1335.7
303.15 K | 842.59 | 1.4395 | 1317.8
308.15 K | 838.96 | 1.4375 | 1300.1
313.15 K | 835.33 | 1.4355 | 1282.2
318.15 K | 831.69 | 1.4336 | 1264.9
323.15 K | 828.04 | 1.4315 | 1247.7
328.15 K | 824.38 | 1.4297 | 1230.6
333.15 K | 820.72 | 1.4278 | 1213.7
338.15 K | 817.03 | 1.4258 | 1196.9
343.15 K | 813.33 | 1.4238 | 1180.3

CCCCCCCC(=O)[O-].CCCCCC[NH+](CCCCCC)CCCCCC [trihexylammonium octanoate]
viscosity [mPa·s], [1]
Conditions | Cone and plate viscometry | Falling or rolling sphere viscometry
293.15 K | – | 17.02
298.15 K | 15.9 | 13.93
303.15 K | – | 11.55
308.15 K | – | 9.68
313.15 K | – | 8.21
318.15 K | – | 7.02
323.15 K | – | 6.06
328.15 K | – | 5.27
333.15 K | – | 4.62
338.15 K | – | 4.1
343.15 K | – | 3.65

Conditions | mass density, [1] [kg/m3] | refractive index, [2] | speed of sound, [1] [m/s]
293.15 K | 851.2 | 1.4459 | 1365.7
298.15 K | 847.63 | 1.4441 | 1347.7
303.15 K | 844.06 | 1.4419 | 1329.8
308.15 K | 840.48 | 1.4399 | 1312.2
313.15 K | 836.9 | 1.4381 | 1294.7
318.15 K | 833.31 | 1.4359 | 1277.4
323.15 K | 829.72 | 1.4341 | 1260.2
328.15 K | 826.11 | 1.4322 | 1243.2
333.15 K | 822.5 | 1.4299 | 1226.5
338.15 K | 818.87 | 1.4278 | 1209.9
343.15 K | 815.25 | 1.4258 | 1194

CCCC(=O)[O-].CCCCCCCC[NH+](CCCCCCCC)CCCCCCCC [trioctylammonium butanoate]
viscosity [mPa·s], [1]
Conditions | Cone and plate viscometry | Falling or rolling sphere viscometry
293.15 K | – | 17.82
298.15 K | 16.03 | 14.55
303.15 K | – | 12.06
308.15 K | – | 10.09
313.15 K | – | 8.55
318.15 K | – | 7.3
323.15 K | – | 6.3
328.15 K | – | 5.49
333.15 K | – | 4.82
338.15 K | – | 4.28
343.15 K | – | 3.82

Conditions | mass density, [1] [kg/m3] | refractive index, [2] | speed of sound, [1] [m/s]
293.15 K | 845.71 | 1.4474 | 1377.6
298.15 K | 842.19 | 1.4456 | 1359.6
303.15 K | 838.68 | 1.4437 | 1341.8
308.15 K | 835.16 | 1.4417 | 1324.2
313.15 K | 831.64 | 1.4395 | 1306.8
318.15 K | 828.12 | 1.4376 | 1289.6
323.15 K | 824.59 | 1.4356 | 1272.5
328.15 K | 821.05 | 1.4339 | 1255.6
333.15 K | 817.51 | 1.4319 | 1239
338.15 K | 813.96 | 1.43 | 1222.5
343.15 K | 810.41 | 1.428 | 1206.8

CCCCCC(=O)[O-].CCCCCCCC[NH+](CCCCCCCC)CCCCCCCC [trioctylammonium hexanoate]
viscosity [mPa·s], [1]
Conditions | Cone and plate viscometry | Falling or rolling sphere viscometry
293.15 K | – | 20.58
298.15 K | 20.59 | 16.72
303.15 K | – | 13.76
308.15 K | – | 11.47
313.15 K | – | 9.64
318.15 K | – | 8.19
323.15 K | – | 7.04
328.15 K | – | 6.09
333.15 K | – | 5.32
338.15 K | – | 4.67
343.15 K | – | 4.14

Conditions | mass density, [1] [kg/m3] | refractive index, [2] | speed of sound, [1] [m/s]
293.15 K | 848.02 | 1.4489 | 1384
298.15 K | 844.54 | 1.4469 | 1366.2
303.15 K | 841.06 | 1.4451 | 1348.5
308.15 K | 837.58 | 1.4432 | 1331
313.15 K | 834.1 | 1.4413 | 1313.8
318.15 K | 830.61 | 1.4394 | 1296.6
323.15 K | 827.12 | 1.4375 | 1279.7
328.15 K | 823.62 | 1.4353 | 1262.9
333.15 K | 820.12 | 1.4336 | 1246.4
338.15 K | 816.62 | 1.4316 | 1230.1
343.15 K | 813.12 | 1.4294 | 1214.5

CCCCCC(=O)[O-].CCCCCCCC[NH+](CCCCCCCC)CCCCCCCC [trioctylammonium hexanoate] + O
Conditions | mass density, [4] [kg/m3] | refractive index, [3] | speed of sound, [4] [m/s] | viscosity, [4] [mPa·s]
w2 = 0.00078 | 844.54 | 1.4469 | 1366.2 | 16.72
w2 = 0.001285 | 844.88 | – | 1366.9 | 15.89
w2 = 0.001301 | – | 1.4465 | – | –
w2 = 0.002315 | 845.44 | – | 1367.8 | 14.49
w2 = 0.002627 | – | 1.4458 | – | –
w2 = 0.003049 | – | 1.4455 | – | –
w2 = 0.003128 | 845.81 | – | 1368.8 | 13.68

CCCCCCCC(=O)[O-].CCCCCCCC[NH+](CCCCCCCC)CCCCCCCC [trioctylammonium octanoate]
viscosity [mPa·s], [1]
Conditions | Cone and plate viscometry | Falling or rolling sphere viscometry
293.15 K | – | 25.02
298.15 K | 25.07 | 20.3
303.15 K | – | 16.63
308.15 K | – | 13.85
313.15 K | – | 11.6
318.15 K | – | 9.84
323.15 K | – | 8.38
328.15 K | – | 7.26
333.15 K | – | 6.33
338.15 K | – | 5.54
343.15 K | – | 4.92

Conditions | mass density, [1] [kg/m3] | refractive index, [2] | speed of sound, [1] [m/s]
293.15 K | 849.68 | 1.4505 | 1393.1
298.15 K | 846.22 | 1.4484 | 1375.3
303.15 K | 842.77 | 1.4464 | 1357.6
308.15 K | 839.31 | 1.4447 | 1340.1
313.15 K | 835.85 | 1.4426 | 1322.8
318.15 K | 832.38 | 1.4406 | 1305.7
323.15 K | 828.91 | 1.4389 | 1288.8
328.15 K | 825.44 | 1.4369 | 1272
333.15 K | 821.95 | 1.4348 | 1255.5
338.15 K | 818.47 | 1.4329 | 1239.2
343.15 K | 815.03 | 1.4309 | 1223.7
